target: T1, glucan synthase (GS) (Candida albicans, UniProt O13428); assay: Glucan synthase inhibition (polymerization assay, 96-well, 3H-UDPG incorporation); format: biochemical; conditions: not given
T1 construct: Extraction of GS activity from membranes was performed at a protein concentration of 5 mg/mL in extraction buffer; endogenous in cells; host or cells: Candida albicans MY1055 (membrane fraction, detergent extract, product entrapment)
Procedure: The in vitro evaluation of glucan synthase inhibitory activity of compounds was measured in a polymerization assay in 96-well format. Each well contained 100 µL of ^3H-UDPG at 0.5 mM (6000 to 8000 dpm/nmol), 50 mM HEPES pH 7.5 (Sigma), 10% w/v glycerol (Sigma), 1.5 mg/mL bovine serum albumin (Sigma A 9647. Lot 44H0190), 25 mM KF (Fisher), 1 mM EDTA (Gibco ULTRAPURE), 25 µM GTP-γ-S, enzyme sufficient to give 3 to 6 nmoles incorporation during the 60 min incubation at 22°C, and test compound added from wells in 3-fold serial dilutions in 100% DMSO (1 µL/well). The reaction was stopped by the addition of 100 µL of 20% trichloroacetic acid. Plates were chilled for a minimum of 10 min, and precipitated glucan collected by filtration on GF/C plates (Packard UNIFILTER®-96), washed with 5 cycles of water (about 1 mL/well each cycle) using a Packard FILTERMATE HARVESTER. 40 µL/well scintillation fluid (Packard ULTIMA GOLD TM-XR) was added and the sealed plates counted in a WALLAC BETA counter in top-counting mode at an efficiency of approximately 40%.
Stock solutions were stored at 10 mg/mL in DMSO at -20°C. For each new enzyme preparation, the initial titration performed started at 1 mg/mL, which was prepared by making a 10-fold dilution in DMSO (5 µL to 50 µL). 40 µL of this stock was placed in column 12 of a round-bottomed 96-well microtiter plate. 40 µL DMSO was added to columns 1 to 11 in the same row and ten 3-fold serial dilutions performed, by transferring 20 µL from column 12 to column 11 etc., with 4 mixings before each transfer. No test compound was transferred to from column 2 to column 1. Duplicate aliquots of 1 µL of all 12 dilutions were then transferred to the side walls of a 96-well Bioblock 1.1 mL plate (Fisher brand) to create two rows.
Graphs of the primary data were created in PRISM software (the average of two determinations) using PRISM's curve fitting program (sigmoidal dose response non-linear regression). The amount of compound required to inhibit glucan synthase activity by 50% in this assay (IC50 - ng/mL) was calculated.
Routine analysis was performed with glucan synthase (GS) prepared from Candida albicans MY1055 by the following procedure: MY1055 was grown in 10 liters YPD medium (10 g yeast extract, 20 g tryptone, 20 g glucose per liter) with vigorous shaking at 30°C, to early stationary phase. Cells were harvested by centrifugation, the pellet was washed and frozen at -70°C until breakage. Thawed pellets were shaken with an equal volume of breakage buffer (50 mM HEPES pH 7.4, 10% glycerol, 1 mM EDTA, 1 mM PMSF, 1mM DTT) and 4 times their weight of 0.5 mm acid washed glass beads for 2 hours at 4°C. Extent of breakage was assessed visually at 40x magnification. After low speed centrifugation to remove cell debris, the supernatant was centrifuged at 100,000 x g for 60 min. to separate membranes plus ribosomes from cytoplasmic components. Membranes were further washed two additional times with breakage buffer using the same centrifugation conditions and finally suspended in breakage buffer at 25 to 30 mg/mL protein (Biorad) for storage at -70°C. Extraction of GS activity from membranes was performed at a protein concentration of 5 mg/mL in extraction buffer (50mM NaPO4 pH 7.5, 0.1 M KCl, 0.1M Na citrate, 20% glycerol, 5 µM GTP-γ-S, 1mM DTT, 1 mM PMSF, 3 µg/mL pepstatin) plus 0.25% W1 by gentle mixing at 4°C for 60 min, followed by centrifugation at 100,000 x g for 60 min. After centrifugation, clear supernatant was removed from a pellet consisting of a hard layer usually with small amounts of gelatinous unextracted membranes above it.
Trapping was initiated immediately by 5-fold dilution in trapping buffer (50 mM HEPES pH 7.5, 10 mM KF, 1 mM EDTA, 2 mg/mL BSA) plus 2.5 mM UDPG and 10µM GTP-γ-S. After incubation at 25°C for 60 to 90 minutes, glucan was harvested by low speed centrifugation (3,000 x g, 10 min). […]

T1 sequence (O13428 1-1897): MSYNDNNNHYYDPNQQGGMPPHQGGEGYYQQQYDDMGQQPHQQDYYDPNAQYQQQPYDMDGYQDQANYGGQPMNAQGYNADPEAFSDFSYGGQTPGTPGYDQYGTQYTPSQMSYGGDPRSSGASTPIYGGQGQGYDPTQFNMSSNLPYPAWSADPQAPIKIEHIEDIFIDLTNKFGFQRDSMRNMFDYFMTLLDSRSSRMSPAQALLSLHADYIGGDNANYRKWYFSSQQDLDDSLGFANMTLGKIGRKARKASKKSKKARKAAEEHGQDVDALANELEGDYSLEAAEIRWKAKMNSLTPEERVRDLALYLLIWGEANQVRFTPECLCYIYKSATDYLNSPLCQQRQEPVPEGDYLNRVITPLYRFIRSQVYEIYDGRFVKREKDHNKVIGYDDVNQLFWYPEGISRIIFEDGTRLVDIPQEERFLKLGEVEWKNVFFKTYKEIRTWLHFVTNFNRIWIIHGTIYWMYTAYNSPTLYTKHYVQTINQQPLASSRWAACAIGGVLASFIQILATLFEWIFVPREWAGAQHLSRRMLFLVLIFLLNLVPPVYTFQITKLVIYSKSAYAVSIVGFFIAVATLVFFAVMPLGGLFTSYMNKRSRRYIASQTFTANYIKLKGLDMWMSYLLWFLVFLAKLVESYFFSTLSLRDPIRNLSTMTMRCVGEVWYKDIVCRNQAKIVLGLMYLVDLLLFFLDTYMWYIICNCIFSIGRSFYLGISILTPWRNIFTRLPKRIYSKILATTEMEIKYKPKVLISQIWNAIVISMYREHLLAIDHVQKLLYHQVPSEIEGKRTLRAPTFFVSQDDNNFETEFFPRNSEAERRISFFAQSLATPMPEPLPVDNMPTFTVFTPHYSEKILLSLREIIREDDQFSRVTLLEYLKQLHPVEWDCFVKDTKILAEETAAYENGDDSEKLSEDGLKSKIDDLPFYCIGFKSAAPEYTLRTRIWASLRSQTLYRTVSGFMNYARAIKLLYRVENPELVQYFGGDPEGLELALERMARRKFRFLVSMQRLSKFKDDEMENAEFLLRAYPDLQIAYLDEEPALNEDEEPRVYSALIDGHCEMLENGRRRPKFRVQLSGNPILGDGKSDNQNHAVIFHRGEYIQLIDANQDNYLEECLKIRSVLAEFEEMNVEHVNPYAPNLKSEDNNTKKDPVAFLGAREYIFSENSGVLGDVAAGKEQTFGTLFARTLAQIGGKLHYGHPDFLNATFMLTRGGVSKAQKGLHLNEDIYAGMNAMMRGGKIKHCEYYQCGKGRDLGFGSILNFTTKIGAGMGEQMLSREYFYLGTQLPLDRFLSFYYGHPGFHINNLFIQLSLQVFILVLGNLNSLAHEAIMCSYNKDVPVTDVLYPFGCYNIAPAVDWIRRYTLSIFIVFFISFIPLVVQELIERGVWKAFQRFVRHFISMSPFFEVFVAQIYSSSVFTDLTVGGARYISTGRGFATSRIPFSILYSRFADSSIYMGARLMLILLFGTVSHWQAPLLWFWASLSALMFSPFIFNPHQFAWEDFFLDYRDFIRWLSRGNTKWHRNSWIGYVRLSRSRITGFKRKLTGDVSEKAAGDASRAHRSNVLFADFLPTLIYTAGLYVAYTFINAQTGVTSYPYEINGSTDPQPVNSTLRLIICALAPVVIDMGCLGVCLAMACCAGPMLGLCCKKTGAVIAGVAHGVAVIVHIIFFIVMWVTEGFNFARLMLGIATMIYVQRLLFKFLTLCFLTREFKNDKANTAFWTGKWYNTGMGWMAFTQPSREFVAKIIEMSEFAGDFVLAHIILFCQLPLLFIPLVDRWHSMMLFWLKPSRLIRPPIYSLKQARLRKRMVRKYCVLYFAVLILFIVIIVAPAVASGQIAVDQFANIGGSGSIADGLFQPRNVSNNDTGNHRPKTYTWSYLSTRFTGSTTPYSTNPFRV
T1 sequence (O42825 1-195 partner limits assumed): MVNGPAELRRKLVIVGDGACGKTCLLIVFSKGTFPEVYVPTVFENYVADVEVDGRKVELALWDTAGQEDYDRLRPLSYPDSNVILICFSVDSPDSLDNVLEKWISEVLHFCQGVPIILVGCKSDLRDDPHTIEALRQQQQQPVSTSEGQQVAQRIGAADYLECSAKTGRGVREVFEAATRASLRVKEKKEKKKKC

SMILES	IC50
CC(C)[C@@H](C)[C@@]1(C)CC[C@]2(C)[C@H]3CC[C@@H]4[C@@]5(COC[C@@]4(C)[C@@H](OC[C@](C)(N)C(C)(C)C)[C@H](n4ncnc4-c4ccncc4)C5)C3=CC[C@@]2(C)[C@@H]1C(=O)O [Example 173, (1S,4aR,6aS,7R,8R,10aR,10bR,12aR,14R,15R)-15-[[(2R)-2-amino-2,3,3-trimethylbutyl]oxy]-8-[(1R)-1,2-dimethylpropyl]-14-[5-(4-pyridinyl)-1H-1,2,4-triazol-1-yl]-1,6,6a,7,8,9,10,10a,10b,11,12,12a-dodecahydro-1,6a,8,10a-tetramethyl-4H-1,4a-propano-2H-phenanthro[1,2-c]pyran-7-carboxylic acid]	0.822 nM

same assay, conditions: glucan synthase prepared from Candida albicans MY1055; 60 min incubation at 22°C; read-out: Candida Albicans GS IC50 (ng/mL) (converted)

SMILES	IC50
CNC1(CO[C@H]2[C@H](n3ncnc3C(N)=O)C[C@@]34COC[C@]2(C)[C@@H]3CC[C@H]2C4=CC[C@@]3(C)[C@H](C(=O)O)[C@@](C)([C@H](C)C(C)C)CC[C@]23C)CCOCC1 [Example 46, (1S,4aR,6aS,7R,8R,10aR,10bR,12aR,14R,15R)-14-[5-(aminocarbonyl)-1H-1,2,4-triazol-1-yl]-8-[(1R)-1,2-dimethylpropyl]-15-[[tetrahydro-4-(methylamino)-2H-pyran-4-yl]methoxy]-1,6,6a,7,8,9,10,10a,10b,11,12,12a-dodecahydro-1,6a,8,10a-tetramethyl-4H-1,4a-propano-2H-phenanthro[1,2-c]pyran-7-carboxylic acid]	8.45 nM
CCCN[C@@](C)(CO[C@H]1[C@H](n2ncnc2C(=O)NC)C[C@@]23COC[C@]1(C)[C@@H]2CC[C@H]1C3=CC[C@@]2(C)[C@H](C(=O)O)[C@@](C)([C@H](C)C(C)C)CC[C@]12C)C(C)C [Example 53, (1S,4aR,6aS,7R,8R,10aR,10bR,12aR,14R,15R)-8-[(1R)-1,2-dimethylpropyl]-15-[[(2R)-2,3-dimethyl-2-(propylamino)butyl]oxy]-14-[5-[(methylamino)carbonyl]-1H-1,2,4-triazol-1-yl]-1,6,6a,7,8,9,10,10a,10b,11,12,12a-dodecahydro-1,6a,8,10a-tetramethyl-4H-1,4a-propano-2H-phenanthro[1,2-c]pyran-7-carboxylic acid]	42 nM
CC(C)[C@@H](C)[C@@]1(C)CC[C@]2(C)[C@H]3CC[C@@H]4[C@@]5(COC[C@@]4(C)[C@@H](OCC4(N)CCOCC4)[C@H](n4ncnc4-c4ccncn4)C5)C3=CC[C@@]2(C)[C@@H]1C(=O)O [Example 256, (1S,4aR,6aS,7R,8R,10aR,10bR,12aR,14R,15R)-15-[(4-aminotetrahydro-2H-pyran-4-yl)methoxy]-8-[(1R)-1,2-dimethylpropyl]-14-[5-(4-pyrimidinyl)-1H-1,2,4-triazol-1-yl]-1,6,6a,7,8,9,10,10a,10b,11,12,12a-dodecahydro-1,6a,8,10a-tetramethyl-4H-1,4a-propano-2H-phenanthro[1,2-c]pyran-7-carboxylic acid]	6.84 nM
CNC(=O)c1ncnn1[C@@H]1C[C@@]23COC[C@](C)([C@@H]2CC[C@H]2C3=CC(=O)[C@@]3(C)[C@H](C(=O)O)[C@@](C)([C@H](C)C(C)C)CC[C@]23C)[C@H]1OC[C@](C)(NC)C(C)C [Example 40, (1S,4aR,6aS,7R,8R,10aR,10bR,12aR,14R,15R)-15-[[(2R)-2,3-dimethyl-2-(methylamino)butyl]oxy]-8-[(1R)-1,2-dimethylpropyl]-14-[5-[(methylamino)carbonyl]-1H-1,2,4-triazol-1-yl]-1,6,6a,7,8,9,10,10a,10b,11,12,12a-dodecahydro-1,6a,8,10a-tetramethyl-6-oxo-4H-1,4a-propano-2H-phenanthro[1,2-c]pyran-7-carboxylic acid]	24.9 nM
CN[C@@](C)(CO[C@H]1[C@H](n2ncnc2-c2ccncc2)C[C@@]23COC[C@]1(C)[C@@H]2CC[C@H]1C3=CC[C@@]2(C)[C@H](C(=O)O)[C@@](C)([C@H](C)C(C)C)CC[C@]12C)C(C)(C)C [Example 174, (1S,4aR,6aS,7R,8R,10aR,10bR,12aR,14R,15R)-8-[(1R)-1,2-dimethylpropyl]-14-[5-(4-pyridinyl)-1H-1,2,4-triazol-1-yl]-15-[[(2R)-2,3,3-trimethyl-2-(methylamino)butyl]oxy]-1,6,6a,7,8,9,10,10a,10b,11,12,12a-dodecahydro-1,6a,8,10a-tetramethyl-4H-1,4a-propano-2H-phenanthro[1,2-c]pyran-7-carboxylic acid]	2.69 nM
CC(C)NC(=O)c1ncnn1[C@@H]1C[C@@]23COC[C@](C)([C@@H]2CC[C@H]2C3=CC[C@@]3(C)[C@H](C(=O)O)[C@@](C)([C@H](C)C(C)C)CC[C@]23C)[C@H]1OC[C@](C)(N)C(C)(C)C [Example 93, (1S,4aR,6aS,7R,8R,10aR,10bR,12aR,14R,15R)-15-[[(2R)-2-amino-2,3,3-trimethylbutyl]oxy]-8-[(1R)-1,2-dimethylpropyl]-14-[5-[[(1-methylethyl)amino]carbonyl]-1H-1,2,4-triazol-1-yl]-1,6,6a,7,8,9,10,10a,10b,11,12,12a-dodecahydro-1,6a,8,10a-tetramethyl-4H-1,4a-propano-2H-phenanthro[1,2-c]pyran-7-carboxylic acid]	20.3 nM
CNC1(CO[C@H]2[C@H](n3ncnc3-c3ccncc3)C[C@@]34COC[C@]2(C)[C@@H]3CC[C@H]2C4=CC[C@@]3(C)[C@H](C(=O)O)[C@@](C)([C@H](C)C(C)C)CC[C@]23C)CCOCC1 [Example 181, (1S,4aR,6aS,7R,8R,10aR,10bR,12aR,14R,15R)-8-[(1R)-1,2-dimethylpropyl]-14-[5-(4-pyridinyl)-1H-1,2,4-triazol-1-yl]-15-[[tetrahydro-4-(methylamino)-2H-pyran-4-yl]methoxy]-1,6,6a,7,8,9,10,10a,10b,11,12,12a-dodecahydro-1,6a,8,10a-tetramethyl-4H-1,4a-propano-2H-phenanthro[1,2-c]pyran-7-carboxylic acid]	10.8 nM
CC(C)[C@@H](C)[C@@]1(C)CC[C@]2(C)[C@H]3CC[C@@H]4[C@@]5(COC[C@@]4(C)[C@@H](OC[C@](C)(N)C(C)(C)C)[C@H](n4ncnc4-c4ccnnc4)C5)C3=CC[C@@]2(C)[C@@H]1C(=O)O [Example 202, (1S,4aR,6aS,7R,8R,10aR,10bR,12aR,14R,15R)-15-[[(2R)-2-amino-2,3,3-trimethylbutyl]oxy]-8-[(1R)-1,2-dimethylpropyl]-14-[5-(4-pyridazinyl)-1H-1,2,4-triazol-1-yl]-1,6,6a,7,8,9,10,10a,10b,11,12,12a-dodecahydro-1,6a,8,10a-tetramethyl-4H-1,4a-propano-2H-phenanthro[1,2-c]pyran-7-carboxylic acid]	0.274 nM
CC(C)[C@@H](C)[C@@]1(C)CC[C@]2(C)[C@H]3CC[C@@H]4[C@@]5(COC[C@@]4(C)[C@@H](OC[C@](C)(N)C(C)C)[C@H](n4ncnc4-c4cccnc4)C5)C3=CC[C@@]2(C)[C@@H]1C(=O)O [Example 182, (1S,4aR,6aS,7R,8R,10aR,10bR,12aR,14R,15R)-15-[[(2R)-2-amino-2,3-dimethylbutyl]oxy]-8-[(1R)-1,2-dimethylpropyl]-14-[5-(3-pyridinyl)-1H-1,2,4-triazol-1-yl]-1,6,6a,7,8,9,10,10a,10b,11,12,12a-dodecahydro-1,6a,8,10a-tetramethyl-4H-1,4a-propano-2H-phenanthro[1,2-c]pyran-7-carboxylic acid]	5.59 nM

— patent publication EP2326172B1, “ANTIFUNGAL AGENTS” (Scynexis, Inc., priority 2008, dated 2010)
